Measured values: PMC7083148, “Identification of a General Odorant Receptor for Repellents in the Asian Corn Borer Ostrinia furnacalis” (Frontiers in Physiology, 2020)

Target: T1, OfurOR27 (Ostrinia furnacalis, UniProt A0A0E4B5I0)
T1 construct: gene OR27; full-length ORF (402 amino acids); with OfurOrco (OfurOR2)
T1 sequence (A0A0E4B5I0 1-401): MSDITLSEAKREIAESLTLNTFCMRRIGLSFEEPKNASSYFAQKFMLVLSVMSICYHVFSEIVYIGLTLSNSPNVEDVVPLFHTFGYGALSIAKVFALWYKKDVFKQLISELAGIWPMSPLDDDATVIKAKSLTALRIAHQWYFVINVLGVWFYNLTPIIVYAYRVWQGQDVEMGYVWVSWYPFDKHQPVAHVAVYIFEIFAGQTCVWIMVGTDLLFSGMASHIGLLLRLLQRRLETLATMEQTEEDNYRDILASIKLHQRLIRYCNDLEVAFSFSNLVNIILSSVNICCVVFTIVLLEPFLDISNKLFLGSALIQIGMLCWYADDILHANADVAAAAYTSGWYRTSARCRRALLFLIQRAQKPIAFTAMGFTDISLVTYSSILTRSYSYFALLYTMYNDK
T1 sequence (A0A0E4B591 1-474 partner): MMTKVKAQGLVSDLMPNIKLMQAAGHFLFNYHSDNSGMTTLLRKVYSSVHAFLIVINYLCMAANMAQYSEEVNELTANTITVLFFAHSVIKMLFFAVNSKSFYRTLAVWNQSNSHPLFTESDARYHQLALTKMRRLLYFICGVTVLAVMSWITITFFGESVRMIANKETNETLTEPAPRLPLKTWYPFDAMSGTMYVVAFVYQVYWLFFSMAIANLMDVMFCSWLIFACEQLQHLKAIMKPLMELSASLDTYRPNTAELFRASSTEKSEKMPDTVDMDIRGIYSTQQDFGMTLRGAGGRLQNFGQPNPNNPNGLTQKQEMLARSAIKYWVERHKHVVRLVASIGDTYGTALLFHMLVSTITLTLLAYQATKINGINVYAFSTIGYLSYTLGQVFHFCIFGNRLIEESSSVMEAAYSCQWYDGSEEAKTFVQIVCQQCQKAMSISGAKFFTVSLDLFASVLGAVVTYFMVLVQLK
Assay: two-electrode voltage clamp in Xenopus oocytes co-expressing OfurOR27/OfurOrco, dose-response
Assay type: cell-based

| Structure (SMILES) | EC50 [nM] |
| --- | --- |
| CCCCCCCCO [1-octanol] | 14100 |
| CCCCCCCCC=O [nonanal] | 367 |
| CCCCCCCC=O [octanal] | 1180 |
